PMC9460159 (iScience, 2022)

How the values were obtained:
YciM = molecular target: T1, YciM (Salmonella enterica, UniProt Q7CQG6); assay: isothermal titration calorimetry, single-site fit; type: binding
T1 sequence (Q7CQG6 23-389): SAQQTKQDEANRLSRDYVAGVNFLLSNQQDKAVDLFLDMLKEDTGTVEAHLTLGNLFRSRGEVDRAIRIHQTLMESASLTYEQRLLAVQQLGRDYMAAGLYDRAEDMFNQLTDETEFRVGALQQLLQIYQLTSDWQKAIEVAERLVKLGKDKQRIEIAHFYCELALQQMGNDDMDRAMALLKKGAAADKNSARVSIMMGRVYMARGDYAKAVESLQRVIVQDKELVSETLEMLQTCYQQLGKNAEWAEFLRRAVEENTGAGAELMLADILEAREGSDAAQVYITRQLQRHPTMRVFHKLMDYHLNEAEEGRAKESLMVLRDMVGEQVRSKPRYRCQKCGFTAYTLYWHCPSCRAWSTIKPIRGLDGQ

crystal structure = molecular target: the molecule itself; assay: crystal structure

Row | Molecule | Kd (YciM) | binding result (crystal structure)
1 | CCCCCCCCCCCC(O)CC(=O)O (centres unmarked) [3-hydroxymyristic acid] | 1250 ± 880 nM | 
2 | YciM cytoplasmic domain of S. typhimurium (domain or fragment, UniProt A0A0F6B1Z6 136-389, looked up) ETEFRVGALQQLLQIYQLTSDWQKAIEVAERLVKLGKDKQRIEIAHFYCELALQQMGNDDMDRAMALLKKGAAADKNSARVSIMMGRVYMARGDYAKAVESLQRVIVQDKELVSETLEMLQTCYQQLGKNAEWAEFLRRAVEENTGAGAELMLADILEAREGSDAAQVYITRQLQRHPTMRVFHKLMDYHLNEAEEGRAKESLMVLRDMVGEQVRSKPRYRCQKCGFTAYTLYWHCPSCRAWSTIKPIRGLDGQ |  | binds
